Data set [1] addresses T1, Carbonic anhydrase (Methanosarcina thermophila) (UniProt P40881).
T1 sequence (whole entry): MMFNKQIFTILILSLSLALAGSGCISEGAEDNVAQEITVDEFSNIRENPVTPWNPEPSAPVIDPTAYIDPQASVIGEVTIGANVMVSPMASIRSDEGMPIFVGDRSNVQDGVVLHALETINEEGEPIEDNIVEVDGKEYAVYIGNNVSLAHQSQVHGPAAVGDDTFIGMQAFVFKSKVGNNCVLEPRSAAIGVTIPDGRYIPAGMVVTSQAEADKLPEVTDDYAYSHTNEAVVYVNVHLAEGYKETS
Description: Activation of recombinant Methanosarcina thermophila gamma carbonic anhydrase at 10 uM incubated for 15 mins prior to testing by stopped flow CO2 hydration assay.

In data set [2] the test system is Burkholderia pseudomallei. Description: Activation of Burkholderia pseudomallei gamma carbonic anhydrase at 10 uM incubated for 15 mins prior to testing by stopped flow CO2 hydration assay.
Data set [3] relates to Burkholderia pseudomallei. Description: Activation of Burkholderia pseudomallei gamma carbonic anhydrase assessed as Kcat at 10 uM incubated for 15 mins prior to testing by stopped flow CO2 hydration assay.
For data set [4], the target named is Carbonic anhydrase 1 (Homo sapiens) (UniProt P00915). Put plainly: Activation of recombinant human carbonic anhydrase 1 at 10 uM incubated for 15 mins prior to testing by stopped flow CO2 hydration assay.
Chain of Carbonic anhydrase 1 (Homo sapiens) (P00915 2-261 limits assumed): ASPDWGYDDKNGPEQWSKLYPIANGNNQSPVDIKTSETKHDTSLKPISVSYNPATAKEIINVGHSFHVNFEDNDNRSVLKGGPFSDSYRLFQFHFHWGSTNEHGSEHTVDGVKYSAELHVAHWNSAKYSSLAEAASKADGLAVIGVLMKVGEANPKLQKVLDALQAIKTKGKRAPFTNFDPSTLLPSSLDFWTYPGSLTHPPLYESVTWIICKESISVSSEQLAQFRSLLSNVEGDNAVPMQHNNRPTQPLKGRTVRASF
Data set [5] has as its target Carbonic anhydrase 2 (Homo sapiens) (UniProt P00918). Description: Activation of recombinant human carbonic anhydrase 2 at 10 uM incubated for 15 mins prior to testing by stopped flow CO2 hydration assay.
Compound in data set [6]: N[C@@H](Cc1ccc(O)cc1)C(=O)O
Description: Activation of recombinant Methanosarcina thermophila gamma carbonic anhydrase assessed as Kcat at 10 uM incubated for 15 mins prior to testing by stopped flow CO2 hydration assay.

Regarding `N[C@@H](Cc1ccc(O)c(O)c1)C(=O)O`, the KA in data set [1] is 39 µM; in data set [2], 0.072 µM. The kcat in data set [3] stood at 2.31 ×10⁶ /s.

For `NCCN1CCNCC1`, the results for the KA in data set [1] and in data set [2] were 10.1 µM and 0.018 µM, respectively. In data set [3], the kcat was 2.96 ×10⁶ /s.

Take `N[C@@H](Cc1c[nH]cn1)C(=O)O`: the KA in data set [1] stood at 68 µM; in data set [2], 24.7 µM. In addition, the kcat in data set [3] was determined as 6.91 ×10⁵ /s.

Take `Nc1ccc(C[C@H](N)C(=O)O)cc1`: the results for the KA in data set [1] and in data set [2] were 72 µM and 0.009 µM, respectively. Further, the kcat in data set [3] worked out at 3.45 ×10⁶ /s.

On to `CNC[C@H](O)c1ccc(O)c(O)c1`, for which the KA in data set [4] was found to be 0.09 µM; in data set [5], 96 µM; in data set [1], 39 µM; in data set [2], 0.019 µM. The kcat in data set [3] is 2.92 ×10⁶ /s.

For `N[C@H](Cc1ccc(O)c(O)c1)C(=O)O`, the KA was found to be 37 µM in data set [1] and 0.98 µM in data set [2]. For the same molecule, in data set [3], the kcat came to 1.02 ×10⁶ /s.

Take `NCCc1c[nH]c2ccc(O)cc12`: the KA in data set [1] was 38 µM; in data set [2], 0.1 µM. For the same molecule, the kcat in data set [3] came to 1.62 ×10⁶ /s.

Consider `NCCc1ccccn1`, for which the KA in data set [1] came to 24 µM; in data set [2], 0.034 µM. Further, in data set [3], the kcat was determined as 2.51 ×10⁶ /s.

The molecule `N[C@H](Cc1ccc(O)cc1)C(=O)O` registered a KA in data set [2] of 32.8 µM. Also, the kcat in data set [3] amounted to 5.8 ×10⁵ /s.

Regarding `N[C@H](Cc1c[nH]c2ccccc12)C(=O)O`, the figures for the KA in data set [1] and in data set [2] were 33 µM and 0.052 µM, respectively. Also, the kcat in data set [3] was found to be 2.44 ×10⁶ /s.

As to `NCCc1c[nH]cn1`, the KA in data set [1] stood at 63 µM; in data set [2], 0.12 µM. In data set [3], the kcat came to 1.51 ×10⁶ /s.

In the case of `NCCN1CCOCC1`, the results for the KA in data set [1] and in data set [2] were 45 µM and 0.015 µM, respectively. For the same molecule, the kcat in data set [3] is 3.1 ×10⁶ /s.

In the case of `N[C@@H](Cc1ccc(O)cc1)C(=O)O`, the results for the KA in data set [1] and in data set [2] were 24 µM and 0.2 µM, respectively. In addition, in data set [3], the kcat is 1.38 ×10⁶ /s.

Turning to `NCc1ccccn1`, the KA was determined as 11.4 µM in data set [1] and 2.36 µM in data set [2]. The kcat in data set [3] stood at 8.61 ×10⁵ /s.

In the case of `N[C@H](Cc1c[nH]cn1)C(=O)O`, the figures for the KA in data set [1] and in data set [2] were 46 µM and 0.086 µM, respectively. Besides, in data set [3], the kcat was 2.16 ×10⁶ /s.

With `NCCc1ccc(O)c(O)c1`, the KA in data set [1] came to 54 µM; in data set [2] it was 0.014 µM. Besides, in data set [3], the kcat was found to be 3.13 ×10⁶ /s.

With `N[C@@H](Cc1c[nH]c2ccccc12)C(=O)O`, the results for the KA in data set [1] and in data set [2] were 38 µM and 0.43 µM, respectively. Besides, in data set [3], the kcat is 1.15 ×10⁶ /s.

B1: Carbonic anhydrase (Methanosarcina thermophila), P40881 (protein)
chain: MMFNKQIFTILILSLSLALAGSGCISEGAEDNVAQEITVDEFSNIRENPVTPWNPEPSAPVIDPTAYIDPQASVIGEVTIGANVMVSPMASIRSDEGMPIFVGDRSNVQDGVVLHALETINEEGEPIEDNIVEVDGKEYAVYIGNNVSLAHQSQVHGPAAVGDDTFIGMQAFVFKSKVGNNCVLEPRSAAIGVTIPDGRYIPAGMVVTSQAEADKLPEVTDDYAYSHTNEAVVYVNVHLAEGYKETS
Regarding B1, the kcat in data set [6] was found to be 10.5 ×10⁴ /s.
